Earlier results on one compound are cited in US10487297B2, “Environmentally preferred antimicrobial compositions” (CHEMLINK LABORATORIES, LLC, priority 2013, dated 2019).

Broadly, the pKa is the pH at which an ionisable group is half protonated.

`CC(=O)N(CCN(C(C)=O)C(C)=O)C(C)=O` [TAED, N,N,N′N′-tetraacetylethylenediamine]: the pKa is 8.
